Data published in article PMC2632303 (Journal of molecular biology, 2008).
Where no end group is shown, it is not given here.

Assays:
[1] = molecular target: T1, human 20S proteasome (Homo sapiens, UniProt P25788); experiment: Ki determinations, non-competitive kinetics with Suc-LLVY-AMC; format: biochemical; conditions: for Ki relative to PR11: comparison of Table III values
[2] = tested on: 20S proteasome; conditions: cited from earlier work
[3] = molecular target: T1, human 20S proteasome; experiment: Inhibition of chymotrypsin-like activity of 20S proteasome by PR-peptides; format: biochemical; conditions: same experiment as I50; n of Eq. 1

Sequence | Ki [1] [nM] | Ki relative to PR11 [1] | also measured
RRRPRPPALPRW [Peptide A8W12] | 50.7 | nearly half of PR11 | 
RRRPRPPFLPRW [Peptide F8W12] | 184 | about two-fold greater than that of PR11 | 
RRRPRPPY [PR8] |  |  | Inhibition of 20S proteasome [2]: does not inhibit 20S proteasome
RRRPRPPYLPR [PR11] | 86.5 |  | 
RRRPRPPYLPRPRPPPFFPPRLPPRIPPGFPPRFPPRFP [PR39] |  |  | N (fractional occupation of PR-peptide on 20S proteasome, derived from curve-fitting) [3]: 1.232
RRRPRPPYLPRW [Peptide W12] | 39.5 |  | 
